# Data from patent publication US12257253B2, “Triamterene or nolatrexed for use in the treatment of phenylketonuria” (SOM INNOVATION BIOTECH, S.A., priority 2019, dated 2025).
# Columns and labels:
# wild-type PAH [1] = target: T1, wild-type PAH (Homo sapiens (Human), UniProt P00439); assay: Isothermal titration calorimetry; format: binding; settings: ITC
# Text: 4. Isothermal Titration Calorimetry
# Isothermal titration calorimetry (ITC) is a quantitative physical technique used to determine binding affinities of small molecules to proteins or other larger molecules [Freyer M. W. and Lewis E. A., Methods in Cell Biology, 2008, vol. 4, Chapter 4, pages 79-113]. The measurement detects changes of heat generated or absorbed when molecules interact, generate binding kinetics and thermodynamic profile of the molecular interaction. The following parameters are determined: KD (equilibrium dissociation constant), N (stoichiometry of the interaction (mol ligand/mol complex)), ΔH (enthalpy change), ΔG (Gibbs energy), T (temperature) and ΔS (entropy change).
# ITC experiments were performed at 25° C. using a MicroCal PEAQ-ITC microcalorimeter (Malvern). PAH proteins were prepared in a HEPES buffer (HEPES 20 mM Hepes, 0.2M NaCl, 1 mM DTT, pH 7.0) containing 5% DMSO, in order to match the final DMSO concentration of the compounds dilutions. The protein concentration used (30 μM) was determined using ultraviolet (UV) absorbance at 280 nm. The compounds ([…]) were prepared using the exact same buffer. Twelve injections of 3 μL of compound/ligand were titrated into the sample cell (containing the protein) over 31 min with a stirring speed of 750 rpm. Data was baseline adjusted by subtracting the background obtained from equivalent injections of compound into the buffer solution. The titration curves were analyzed using MicroCal PEAQ-ITC analytics software (version 1.1.0.1262, Malvern Instruments Ltd.) using a model that assumes a set of identical binding sites where the total heat of the solution is calculated as:
# [formula] where n is the number of binding sites, Mt is the total protein concentration in the cell, ΔH is the molar heat of ligand binding, Xt is the total concentration of ligand, and K the binding constant (K=1/KD). The heat released per injection (i), ΔQ(i), is calculated following the equation below, which compensates for the volume that is added in each injection (ΔVi). V0 is the initial volume in the cell.
# The parameters, n, K, and ΔH are determined using non-linear square fitting using the Levenberg-Marquardt algorithm.
# wild-type PAH [2] = target: T1, wild-type PAH; assay: Phenylalanine hydroxylase residual protein amount (dot blot, COS-7 lysates); format: cell-based; settings: COS-7 cells, compound 10 μM (sepiapterin 5 μM), 48 h; read-out: PAH protein level (immune blot signal) WT PAH Mean
# Experimental: (§1) 3. Phenylalanine Hydroxylase Residual Protein Amount
# (§2) The analysis of the residual PAH protein amount was based on the method described in Gersting S. W. et al., Human Molecular Genetics, 2010, 19(10), 2039-2049 with modifications.
# (§3) Detection of the residual PAH protein amount was performed as a dot blot using the lysates obtained from the cell culture where transiently transfected COS-7 cells (with wild-type PAH or PAH variant) were exposed for 48 h to compounds. The experiment was carried out from the same samples as used for measuring enzyme activities.
# (§4) 2 μl of the lysate were dropped onto the nitrocellulose membrane. The membrane was allowed to air dry at room temperature for 30 min followed by 40 min blocking in 5% milk in TBS-Tween (room temperature). The membrane was incubated with the mouse monoclonal primary antibody specific for PAH (Millipore, Cat. No. MAB5278, 1:1000 dilution in 5% milk in TBS-Tween) for overnight at 4° C. Next, the membrane was washed (3×10 min in TBS-Tween) and incubated with the secondary HRP-conjugated antibody (anti-mouse antibody; Santa Cruz Biotechnology, Inc., Cat. No. sc-2005; 1:1000 dilution in 5% milk in TBS-Tween) followed by thorough washing in TBS-Tween (3×10 min) and distilled water (1×10 min). Blots were visualized with Pierce™ ECL substrate (ThermoFisher Scientific, Cat No. 32106) and chemiluminescence was monitored with a DIANA III Imaging system or ChemiDoc™ MP Imaging System (BioRad). To analyze the compound effect on the PAH protein amount densitometry analysis was performed using ImageJ Software.
# (§5) The effect of compound on PAH protein amount was calculated from triplicates. As for determination of the enzyme activity the background of the not transfected cells (NT) was subtracted from the transfected cells (NCC or compound treated). In the next step delta of the NCC versus compound treated cells was calculated. Residual protein amount greater than 100% represents an increase in the stability of the enzyme with respect to NCC.
# Arg261Gln (R261Q) PAH = Arg261Gln (R261Q) PAH (Homo sapiens (Human), UniProt P00439, R261Q); assay: as above; format: cell-based; settings: COS-7 cells, compound 10 μM (sepiapterin 5 μM), 48 h; read-out: PAH protein level (immune blot signal) R261Q PAH Mean
# Experimental: as §1, §2, §3, §4, §5
# T1 sequence (P00439 whole entry): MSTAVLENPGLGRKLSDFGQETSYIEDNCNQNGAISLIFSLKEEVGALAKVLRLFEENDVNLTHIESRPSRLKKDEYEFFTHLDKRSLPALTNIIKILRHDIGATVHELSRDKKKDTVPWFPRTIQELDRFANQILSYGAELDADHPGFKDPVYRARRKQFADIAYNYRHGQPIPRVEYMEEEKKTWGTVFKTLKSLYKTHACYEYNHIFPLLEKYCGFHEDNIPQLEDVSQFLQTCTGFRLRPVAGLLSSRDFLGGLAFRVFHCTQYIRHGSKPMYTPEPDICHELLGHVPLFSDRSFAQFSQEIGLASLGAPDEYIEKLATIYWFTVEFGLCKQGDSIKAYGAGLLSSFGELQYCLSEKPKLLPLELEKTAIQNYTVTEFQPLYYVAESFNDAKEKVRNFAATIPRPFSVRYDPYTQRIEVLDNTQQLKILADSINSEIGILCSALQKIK
# Sequence of Arg261Gln (R261Q) PAH (P00439 whole entry R261Q): as the sequence (P00439 whole entry) above, with R261Q counted along it
smiles,measurement,setting,value
"Nc1nc(N)c2nc(-c3ccccc3)c(N)nc2n1 [Triamterene, 2,4,7-triamino-6-phenylpteridine]",Kd,"wild-type PAH [1]; 25° C., WT PAH",3.03 µM
same,N (stoichiometry),"wild-type PAH [1]; 25° C., WT PAH",0.726 ± 0.00 sites
same,ΔG,"wild-type PAH [1]; 25° C., WT PAH",-7.53 kcal/mol
same,ΔH,"wild-type PAH [1]; 25° C., WT PAH",-5.54 ± 0.17 kcal/mol
same,−TΔS,"wild-type PAH [1]; 25° C., WT PAH",-1.99 kcal/mol
same,Kd (in words),wild-type PAH [1]; recombinant PAH,low micromolar range
same,PAH protein level (% of control) at 10 µM,wild-type PAH [2],110%
same,PAH protein level (% of control) at 10 µM,Arg261Gln (R261Q) PAH,130%
